Source: publication PMC5904360, “Soluble N-Ethylmaleimide-Sensitive Factor Attachment Protein Receptor-Derived Peptides for Regulation of Mast Cell Degranulation” (Frontiers in Immunology, 2018)

Legend:
[1] = target: T1, SN23-Syn4-Vp8 SNARE complex (Rattus norvegicus, UniProt O70377+Q08850+Q9WUF4); experiment: SNARE-driven membrane fusion (total lipid mixing) assay with proteoliposomes; type: biochemical; settings: for inhibition of membrane fusion (lipid mixing): inhibitor applied to T-vesicles, T:V 9:1, 37°C, NBD dequenching, Vp2S/Vp8S at 10 µM, three independent experiments (Figure 3B-D); for inhibition of membrane fusion, peptide added before preincubation: peptide added before preincubation of T- and V-liposomes at 4°C overnight (Figure 4A)
T1 construct: Syn4 (amino acids 1–298); SNAP-23 (amino acids 1–210); VAMP8 (amino acids 1–100); GST (N, cleaved yes); made in house; host or cells: Escherichia coli Rosetta(DE3)pLysS
T1 sequence (Q08850 1-298): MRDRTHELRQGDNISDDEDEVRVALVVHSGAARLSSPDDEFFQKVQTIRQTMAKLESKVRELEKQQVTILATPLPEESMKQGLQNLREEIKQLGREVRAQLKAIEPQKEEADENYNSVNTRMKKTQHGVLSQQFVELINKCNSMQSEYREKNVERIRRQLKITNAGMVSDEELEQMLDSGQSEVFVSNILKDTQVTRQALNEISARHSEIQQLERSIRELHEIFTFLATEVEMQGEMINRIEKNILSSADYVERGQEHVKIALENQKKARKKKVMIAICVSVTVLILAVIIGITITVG
T1 sequence (O70377 1-210): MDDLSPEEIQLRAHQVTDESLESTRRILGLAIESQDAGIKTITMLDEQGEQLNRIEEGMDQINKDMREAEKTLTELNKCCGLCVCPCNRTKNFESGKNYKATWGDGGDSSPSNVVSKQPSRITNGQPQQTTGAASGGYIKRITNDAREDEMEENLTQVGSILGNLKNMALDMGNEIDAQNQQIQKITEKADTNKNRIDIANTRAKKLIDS
T1 sequence (Q9WUF4 1-100): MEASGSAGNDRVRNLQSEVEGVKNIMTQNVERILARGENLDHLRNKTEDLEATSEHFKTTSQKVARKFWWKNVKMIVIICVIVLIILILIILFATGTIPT
Source text: Total RNA was obtained from RBL-2H3 cells using TRIzol® Reagent (#15596026, Invitrogen, Carlsbad, CA, USA) and served as a template for cDNA synthesis with M-MLV reverse transcriptase (M1705, Promega, Madison, WI, USA) according to the manufacturer’s protocol. The cDNAs amplified for rat Syn4, SNAP-23, VAMP2, VAMP4, VAMP7, and VAMP8 using each primer pair ([4]), were cloned into the pGEX-4T 1 vector. The mast cell SNARE proteins [Syn4 (amino acids 1–298), SNAP-23 (amino acids 1–210), full-length VAMP2 (VpF, amino acids 1–116), VAMP4 (amino acids 1–141), and VAMP8 (amino acids 1–100)] were expressed in Escherichia coli Rosetta(DE3)pLysS (#70956, Novagen, Darmstadt, Germany) and purified as glutathione-S-transferase-tagged fusion proteins as reported previously ([8]).
To prepare the unilamellar liposomes, a 50-mM lipid mixture of palmitoyl-2-oleoylphosphatidylcholine (POPC) (#850457, Avanti Polar Lipids, Alabaster, AL, USA):1,2-dioleoyl-phosphatidylserine (DOPS) (#840035, Avanti Polar Lipids) at 65:35 mol% was dried in a glass tube under a gentle stream of nitrogen gas and then exposed to a vacuum overnight. The resultant lipid film was resuspended in dialysis buffer (25 mM HEPES and 100 mM KCl, pH 7.4) by vortexing, followed by an extrusion step with polycarbonate membrane filters having a pore size of 100 nm (#610005, Avanti Polar Lipids). To prepare proteoliposomes, binary T-SNAREs, which were pre-formed by mixing Syn4 and SNAP-23 at room temperature for 60 min, were incubated with 50 mM unilamellar liposomes for 15 min at the same temperature, resulting in a 50:1 lipid/protein molar ratio ([9]).
For the preparation of V-SNARE proteoliposomes, a 10-mM premixed lipid solution [POPC:DOPS:N-(7-nitro-2-1,3-benzoxadiazol-4-yl (NBD))-phosphatidylserine (#810198, Avanti Polar Lipids):[…] (#810150, Avanti Polar Lipids) = 62:35:1.5:1.5 (molar ratio)] was used for the preparation of fluorescent liposomes in the same manner as above. The prepared liposomes were then mixed with VAMP2 for 15 min at room temperature. The liposome/protein mixture was diluted twice to bring the concentration of n-octyl glucoside (O8001, Sigma-Aldrich) below the critical micelle concentration. After overnight dialysis against 1L dialysis buffer at 4°C to remove the detergent, SM-2 bio-beads (#1523920, Bio-Rad Laboratories, Hercules, CA, USA) were added to the sample to remove any remaining n-octyl glucoside. The solution was then centrifuged at 10,000 × g to remove the protein/lipid aggregates, and the final lipid concentrations of both the T- and V-liposomes were adjusted to 1 mM with a lipid-to-protein ratio of 50:1.
A total lipid mixing assay using the T- and V-liposomes was performed as described previously with minor modifications ([8]). Briefly, peptide inhibitors were applied to the T-vesicles at the indicated concentrations and then the T-vesicles were mixed with the V-vesicles in a 384-well plate for the initiation of fusion, with a T- to V-vesicle volume ratio of 9:1. The fusion was monitored using the dequenching of NBD fluorescence signal (excitation 465 nm/emission 530 nm). After at least 80 min of fusion, the maximum NBD signal was obtained by adding 0.1% Triton X-100™. All the lipid-mixing experiments were performed at 37°C.

RBL-2H3 mast cells = experiment: Degranulation assay, β-hexosaminidase release; type: cell-based, rat; settings: for reduction of β-hexosaminidase release: 10 µM PTD-fused peptide without SLO (LY294002 as positive control), DNP-BSA stimulation, no A23187 pretreatment, three independent experiments (Figure 2A gray bars, 2C); for inhibition of mast cell degranulation with versus without A23187 pretreatment: PTD-conjugated peptides, read-outs β-hexosaminidase and histamine (Figure 4B); for inhibition of β-hexosaminidase release after A23187 pretreatment: cells pretreated with A23187, sensitized with DNP-IgE, then PTD-conjugated peptide (Figure 4B)

Sequence | inhibition of membrane fusion (lipid mixing) [1] | inhibition of membrane fusion, peptide added before preincubation [1] | reduction of β-hexosaminidase release (RBL-2H3 mast cells) | inhibition of mast cell degranulation with versus without A23187 pretreatment (RBL-2H3 mast cells) | inhibition of β-hexosaminidase release after A23187 pretreatment (RBL-2H3 mast cells)
SARHSEIQQLERTIREL [Syn4N, 17-mer peptide, N-terminal region of syntaxin 4 SNARE motif] | inhibited membrane fusion by both the SN23-Syn4-Vp2 and SN23-Syn4-Vp8 complexes | inhibited the membrane fusion induced by both SN23-Syn4-Vp2 and SN23-Syn4-Vp8 | 30–40% | inhibited mast cell degranulation more efficiently than without pretreatment | inhibited both histamine and β-hexosaminidase release
LQSEVEGVKNIMTQNVE [Vp8N, 17-mer peptide, N-terminal region of VAMP8 SNARE motif] | specific to the SN23-Syn4-Vp8 complex | inhibited the membrane fusion driven only by their cognate SNARE complexes | 30–40% | inhibited mast cell degranulation more efficiently than without pretreatment | inhibited both histamine and β-hexosaminidase release
EDEMEENLTQVGSILGN [SC23N, 17-mer peptide, N-terminal region of SNAP-23 SNARE motif SC23] | inhibited membrane fusion by both the SN23-Syn4-Vp2 and SN23-Syn4-Vp8 complexes | inhibited the membrane fusion induced by both SN23-Syn4-Vp2 and SN23-Syn4-Vp8 |  | inhibited mast cell degranulation more efficiently than without pretreatment | 
